Source: patent US20190111137A1, “METHODS FOR ANTAGONISTS OF A NON-SELECTIVE CATION CHANNEL IN NEURAL CELLS” (University of Maryland, Baltimore, priority 2007, published 2019)
Entries after “also recorded” stand apart in the source; their conditions may differ. Like-named read-outs stand apart in the source and are kept apart here.

How the values were obtained:
[1] = test system: global cerebral ischemia in gerbils; settings: in vivo; cited from earlier work
[2] = molecular target: T1, NCCa-ATP channel (Rattus norvegicus, UniProt Q09429+Q9ESQ5); settings: cited from earlier work; for channel opening in the presence of ATP: K+ channel openers
T1 construct: endogenous in cells; host or cells: freshly isolated native reactive astrocytes from the hypoxic gliotic capsule

[3] = molecular target: T1, NCCa-ATP channel; experiment: Patch clamp of NCCa-ATP channel in freshly isolated native reactive astrocytes; assay type: cell-based; settings: for EC50: read-out: [ATP]1 EC50
Procedure: (§1) PATCH CLAMP. […] In general, recordings are carried out using a Cs^+ rich solution, to preclude recording activity from any K^+ channel including KATP channel.

[4] = molecular target: T2, NCCa-ATP channel (Mus musculus, UniProt B2RUS7+Q7TN37); experiment: Patch clamp of bEnd.3 cells exposed to TNFα, ATP depleted with Na azide plus 2-DG; assay type: cell-based, murine; settings: TNFα-treated bEnd.3 cells; for block of single channel activity (inside-out patch): Cs+ as the only permeant cation
T2 construct: exposure to TNFα causes expression of a new channel that is not present before exposure to TNFα; host or cells: bEnd.3 cells exposed to TNFα
T2 sequence (Q7TN37 whole entry): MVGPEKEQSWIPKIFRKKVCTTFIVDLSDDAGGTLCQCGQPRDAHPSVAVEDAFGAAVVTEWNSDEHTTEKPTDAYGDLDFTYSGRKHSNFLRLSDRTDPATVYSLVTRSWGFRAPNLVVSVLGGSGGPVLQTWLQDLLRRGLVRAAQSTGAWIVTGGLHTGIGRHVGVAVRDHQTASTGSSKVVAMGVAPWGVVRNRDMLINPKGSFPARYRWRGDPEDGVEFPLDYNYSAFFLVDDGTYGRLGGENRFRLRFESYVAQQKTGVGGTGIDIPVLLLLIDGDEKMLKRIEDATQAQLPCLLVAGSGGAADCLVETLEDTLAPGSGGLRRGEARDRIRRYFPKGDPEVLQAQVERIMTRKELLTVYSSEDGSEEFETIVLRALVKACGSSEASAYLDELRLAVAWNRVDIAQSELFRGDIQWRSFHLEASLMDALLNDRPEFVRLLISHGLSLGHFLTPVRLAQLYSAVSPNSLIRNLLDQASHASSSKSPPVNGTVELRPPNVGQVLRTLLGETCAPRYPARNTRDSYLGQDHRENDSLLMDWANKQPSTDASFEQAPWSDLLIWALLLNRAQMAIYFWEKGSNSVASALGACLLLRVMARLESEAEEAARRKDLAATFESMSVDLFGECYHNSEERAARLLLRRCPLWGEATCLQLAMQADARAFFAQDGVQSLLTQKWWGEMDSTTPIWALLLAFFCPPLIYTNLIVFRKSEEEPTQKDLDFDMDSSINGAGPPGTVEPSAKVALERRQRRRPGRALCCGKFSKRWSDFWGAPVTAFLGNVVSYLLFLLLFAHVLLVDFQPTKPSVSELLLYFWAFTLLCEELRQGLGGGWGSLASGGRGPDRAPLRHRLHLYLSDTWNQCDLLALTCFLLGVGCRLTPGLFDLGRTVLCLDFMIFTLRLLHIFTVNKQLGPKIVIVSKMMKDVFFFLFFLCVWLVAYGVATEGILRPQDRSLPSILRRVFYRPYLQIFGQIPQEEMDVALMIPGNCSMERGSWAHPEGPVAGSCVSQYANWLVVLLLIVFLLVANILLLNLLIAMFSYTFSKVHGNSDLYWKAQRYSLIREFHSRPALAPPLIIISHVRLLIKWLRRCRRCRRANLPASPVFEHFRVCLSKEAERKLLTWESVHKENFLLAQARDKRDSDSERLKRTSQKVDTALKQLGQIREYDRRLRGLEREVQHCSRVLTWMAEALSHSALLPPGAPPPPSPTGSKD
T2 sequence (B2RUS7 1-1588): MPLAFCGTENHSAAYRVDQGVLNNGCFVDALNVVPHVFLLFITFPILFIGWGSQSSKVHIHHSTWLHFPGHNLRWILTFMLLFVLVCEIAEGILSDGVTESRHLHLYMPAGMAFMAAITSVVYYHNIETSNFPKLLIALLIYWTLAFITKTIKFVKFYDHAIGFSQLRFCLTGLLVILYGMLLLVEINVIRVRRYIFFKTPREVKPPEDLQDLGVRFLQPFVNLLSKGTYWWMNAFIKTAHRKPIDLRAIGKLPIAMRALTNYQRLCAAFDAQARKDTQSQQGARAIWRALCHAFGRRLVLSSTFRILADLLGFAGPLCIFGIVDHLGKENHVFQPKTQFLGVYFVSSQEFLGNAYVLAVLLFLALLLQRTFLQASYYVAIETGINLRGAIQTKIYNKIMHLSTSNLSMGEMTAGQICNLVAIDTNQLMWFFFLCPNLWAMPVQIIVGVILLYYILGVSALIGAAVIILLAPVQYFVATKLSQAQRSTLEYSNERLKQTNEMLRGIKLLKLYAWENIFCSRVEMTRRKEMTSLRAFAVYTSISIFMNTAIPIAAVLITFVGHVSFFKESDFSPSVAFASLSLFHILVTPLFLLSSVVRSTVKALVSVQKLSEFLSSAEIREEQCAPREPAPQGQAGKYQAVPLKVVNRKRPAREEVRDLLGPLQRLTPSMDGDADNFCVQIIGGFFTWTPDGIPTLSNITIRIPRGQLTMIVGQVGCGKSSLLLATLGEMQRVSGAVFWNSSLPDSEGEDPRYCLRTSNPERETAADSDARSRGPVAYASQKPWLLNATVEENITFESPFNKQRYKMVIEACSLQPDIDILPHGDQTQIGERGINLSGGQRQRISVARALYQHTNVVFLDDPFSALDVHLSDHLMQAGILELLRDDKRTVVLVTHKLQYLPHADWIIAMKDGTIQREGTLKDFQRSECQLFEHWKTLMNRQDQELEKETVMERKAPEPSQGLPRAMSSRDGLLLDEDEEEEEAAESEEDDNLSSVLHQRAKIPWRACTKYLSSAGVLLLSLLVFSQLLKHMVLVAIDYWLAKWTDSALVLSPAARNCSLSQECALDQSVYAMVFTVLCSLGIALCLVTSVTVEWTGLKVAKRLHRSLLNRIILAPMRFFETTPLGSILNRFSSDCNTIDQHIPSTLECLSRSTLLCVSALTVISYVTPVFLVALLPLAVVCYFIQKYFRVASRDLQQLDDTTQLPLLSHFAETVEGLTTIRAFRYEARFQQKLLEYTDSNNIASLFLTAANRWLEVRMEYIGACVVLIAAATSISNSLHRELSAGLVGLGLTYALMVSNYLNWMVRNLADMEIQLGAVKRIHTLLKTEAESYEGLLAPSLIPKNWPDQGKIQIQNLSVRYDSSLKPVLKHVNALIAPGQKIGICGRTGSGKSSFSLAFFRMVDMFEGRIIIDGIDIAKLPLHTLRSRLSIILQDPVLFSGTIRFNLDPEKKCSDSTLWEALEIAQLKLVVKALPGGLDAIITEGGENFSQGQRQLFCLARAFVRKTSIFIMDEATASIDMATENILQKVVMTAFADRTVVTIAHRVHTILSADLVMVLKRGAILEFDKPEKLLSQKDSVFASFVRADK
Procedure: (§2) (iii) Pharmacological block of SUR1 and TRPM4/patch clamp.
(§3) Patch clamp was performed using a nystatin-perforated patch technique to maintain the metabolic integrity of the cells.
(§4) Single channel recordings were performed using inside-out patches, with Cs^+ as the only permeant cation.
(§5) Apart from direct application of PIP2 (FIG. 24A), PIP2 levels can be augmented by inhibiting spontaneously active PLC.
as §1

[5] = test system: TRPM4 channel; settings: cited from earlier work
[6] = test system: rat model of contusion SCI; settings: as reported (Simard et al., 2007); cited from earlier work
[7] = test system: rat model of contusion SCI; experiment: Rat model of unilateral cervical spinal cord injury (SCI); assay type: in vivo; settings: for neurobehavioral function (inclined plane, rearing) / progressive hemorrhagic necrosis / progressive hemorrhage: post-SCI
[8] = test system: isolated retina of chick embryo; settings: cited from earlier work
[9] = test system: rodent model of transient focal ischemia; settings: pre- or post-ischemic administration; cited from earlier work
[10] = test system: NCCa-ATP channel; experiment: Patch clamp of bEnd.3 cells exposed to TNFα, ATP depleted with Na azide plus 2-DG; assay type: cell-based, murine
Procedure: as §2, §3, §4, §5, §1

[11] = molecular target: T3, TRPM2 (Homo sapiens, UniProt O94759); settings: activated by extracellular H2O2; cited from earlier work
T3 construct: host or cells: Chinese hamster ovary cells
T3 sequence (O94759 whole entry): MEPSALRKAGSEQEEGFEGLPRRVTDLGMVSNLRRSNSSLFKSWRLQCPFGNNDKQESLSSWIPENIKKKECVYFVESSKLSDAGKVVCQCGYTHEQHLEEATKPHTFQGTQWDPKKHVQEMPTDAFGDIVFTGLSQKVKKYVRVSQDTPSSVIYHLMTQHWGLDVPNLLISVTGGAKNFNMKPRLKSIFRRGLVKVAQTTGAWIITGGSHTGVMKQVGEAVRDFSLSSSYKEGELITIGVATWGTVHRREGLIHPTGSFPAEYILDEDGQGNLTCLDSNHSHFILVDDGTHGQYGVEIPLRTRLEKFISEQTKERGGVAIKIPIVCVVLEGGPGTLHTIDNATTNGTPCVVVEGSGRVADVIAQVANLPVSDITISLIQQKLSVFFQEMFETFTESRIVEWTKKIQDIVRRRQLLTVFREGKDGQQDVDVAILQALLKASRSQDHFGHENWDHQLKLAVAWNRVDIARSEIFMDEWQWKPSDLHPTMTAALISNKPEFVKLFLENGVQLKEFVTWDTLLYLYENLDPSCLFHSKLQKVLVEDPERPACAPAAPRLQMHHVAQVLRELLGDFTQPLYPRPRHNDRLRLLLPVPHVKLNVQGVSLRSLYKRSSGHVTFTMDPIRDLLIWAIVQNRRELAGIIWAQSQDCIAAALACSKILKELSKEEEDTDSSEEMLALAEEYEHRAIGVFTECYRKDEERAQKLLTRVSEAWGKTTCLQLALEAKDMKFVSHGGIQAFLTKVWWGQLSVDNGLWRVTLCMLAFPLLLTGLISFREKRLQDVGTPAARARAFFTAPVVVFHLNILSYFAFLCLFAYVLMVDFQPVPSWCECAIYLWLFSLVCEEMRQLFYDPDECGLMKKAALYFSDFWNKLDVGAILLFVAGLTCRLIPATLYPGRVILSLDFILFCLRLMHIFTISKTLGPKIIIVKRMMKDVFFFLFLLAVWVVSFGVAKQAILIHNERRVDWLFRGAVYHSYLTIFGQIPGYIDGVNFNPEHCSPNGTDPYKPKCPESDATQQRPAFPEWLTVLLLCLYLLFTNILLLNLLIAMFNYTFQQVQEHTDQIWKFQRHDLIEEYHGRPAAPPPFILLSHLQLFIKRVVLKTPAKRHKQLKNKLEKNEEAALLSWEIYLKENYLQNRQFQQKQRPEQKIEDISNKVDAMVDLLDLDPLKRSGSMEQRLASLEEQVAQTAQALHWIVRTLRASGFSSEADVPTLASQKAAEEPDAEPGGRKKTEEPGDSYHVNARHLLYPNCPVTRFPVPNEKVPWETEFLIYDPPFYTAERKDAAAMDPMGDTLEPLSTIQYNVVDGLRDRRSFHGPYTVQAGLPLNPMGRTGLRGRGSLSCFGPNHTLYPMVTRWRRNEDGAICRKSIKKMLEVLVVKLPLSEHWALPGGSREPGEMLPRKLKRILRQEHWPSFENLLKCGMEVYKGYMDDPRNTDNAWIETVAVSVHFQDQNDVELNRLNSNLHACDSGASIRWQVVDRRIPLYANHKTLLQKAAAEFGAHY

[12] = test system: permanent middle cerebral artery occlusion (MCAO) model; settings: cited from earlier work
[13] = test system: temporary MCAO model; settings: cited from earlier work
[14] = test system: reactive astrocytes; settings: without ATP depletion; cited from earlier work
[15] = Membrane Preparation derived from freshly isolated native reactive astrocytes
[16] = after 6 h of vascular occlusion

For `COc1cc(CNC(=O)CCCC/C=C/C(C)C)ccc1O` [capsaicin], the “electroencephalographic changes, hyperlocomotion and memory impairment induced by global ischemia” value [1] is given as “antagonize” and the “survival of pyramidal cells in the CA1 subfield of the hippocampus” value [1] is given as “progressive survival”.

For `CC(N/C(=N\C#N)Nc1ccncc1)C(C)(C)C` (stereo not shown) [pinacidil], the “channel opening in the presence of ATP” value [2] is given as “not”.

For `Nc1ncnc2c1ncn2[C@@H]1O[C@H](COP(=O)(O)OP(=O)(O)OP(=O)(O)O)[C@@H](O)[C@H]1O` [ATP], the EC50 [3, 15] was 790 nM, the EC50 ([3]; Reactive Astrocytes) was 790 nM and the “block of single channel activity (inside-out patch)” value [4] was “reversibly blocked”. For the same molecule, the EC50 ([2]; SUR1-regulated NCCa-ATP, read-out: ATP block (EC50)) was 800 nM, the EC50 ([2]; read-out: Channel opening blocked by ATP (EC50)) was 790 nM and the EC50 ([5]; read-out: ATP block (EC50)) was 130 to 1700 nM.

In the case of `CCOc1cc(CC(=O)N[C@@H](CC(C)C)c2ccccc2N2CCCCC2)ccc1C(=O)O` [repaglinide], the neurological function [6] is listed as “improves neurological function” and the progressive hemorrhagic necrosis [6] is listed as “reduces progressive hemorrhagic necrosis”.

For `S=C(S)N1CCCC1` [PDTC, pyrrolidine dithiocarbamate], the “TRPM4 expression in cord (immunolabeling)” value ([7]; 24 h post-SCI) was “significantly decreased; also recorded: reduces TRPM4 expression” and the “neurobehavioral function (inclined plane, rearing)” value (from here on “neurobehavioral function”) [7] was “improved functional outcome”.

In the case of `CCCCNC(=O)NS(=O)(=O)c1ccc(C)cc1` [tolbutamide], the EC50 ([2]; pH 7.4, read-out: block of NCCa-ATP channel opening (EC50)) is given as 16100 nM.

In the case of `Cc1cccc(Nc2ccccc2C(=O)O)c1C` [mefenamic acid], the “protection of the retina against ischemic or excitotoxic insult” value (“protection of the retina” for short) [8] is listed as “protected” and the “neuroprotection (necrosis in cortex and subcortical structures)” value [9] is listed as “no neuroprotection”.

For `[Ca+2]` [Ca^2+], the “Activation [Ca^2+]” value [3, 15] is listed as <1.0 µM, the “Activation [Ca^2+]” value ([3]; Reactive Astrocytes) is listed as <1.0 µM and the EC50 ([2]; SUR1-regulated NCCa-ATP, read-out: Ca^2+ activation (EC50)) is listed as 120 to 1500 nM. For the same molecule, the EC50 ([5]; read-out: Ca^2+ activation (EC50)) was 1300 nM.

With `COc1ccc2c(c1)CC[C@@H]1[C@@H]2CC[C@]2(C)[C@@H](NCCCCCCN3C(=O)C=CC3=O)CC[C@@H]12` [U73122] the “channel activation by inhibiting phospholipase C (whole cell)” value ([10]; TNFα-stimulated bEnd.3 cells) was “activated an ohmic current; also recorded: channel activation” and the “channel activation by inhibiting phospholipase C (whole cell)” value ([10]; control bEnd.3 cells) was “without effect”.

In the case of `Cc1ccc(Cl)c(Nc2ccccc2C(=O)O)c1Cl` [meclofenamic acid], the “protection of the retina” value [8] is given as “protected”.

In the case of PIP2, the PIP2 activation ([3]; SUR1-regulated NCCa-ATP, unpublished observations) is listed as “yes*”, the “channel activity after addition of PIP2” value ([3]; inside-out patch, high concentration of ATP (10 mM) on the cytoplasmic side) is listed as “robust channel activation; also recorded: release of inhibition” and the PIP2 activation [5] is listed as “yes”.

In the case of `Oc1cc2c(cc1O)CN(C(=S)NCCc1ccc(Cl)cc1)CCC2` [capsazepine], the “effect on rimonabant-induced and capsaicin-induced neuroprotective effects” value [1] is listed as “reversed”.

For `Nc1ncnc2c1ncn2[C@@H]1O[C@H](COP(=O)(O)O)[C@@H](O)[C@H]1O` [AMP], the “ADP AMP channel effect” value [3, 15] is given as “No channel”, the “ADP AMP channel effect” value ([3]; Reactive Astrocytes) is given as “No channel” and the “ADP, AMP block” value ([2]; SUR1-regulated NCCa-ATP) is given as “no”. For the same molecule, the “effect of ADP or AMP on channel opening” value [2] was “unaffected” and the “ADP, AMP block” value [5] was “yes”.

For `O=C(O)c1ccccc1Nc1cccc(C(F)(F)F)c1` [flufenamic acid], the “block of current activated by ATP depletion (whole cell)” value (shortened to “block of current activated”) [4] was “blocked; also recorded: also blocks this current”, the “block of current activated” value ([4]; 100 μM flufenamic acid) was “blocked” and the “block of single channel activity (inside-out patch)” value [4] was “blocked”. For the same molecule, the “block of current activated” value ([4]; listed as FFA) was “blocked”, the “amount of blood in cord homogenates” value ([7]; 24-hr post-SCI, post-treatment) was “significant decrease in blood” and the “hemorrhage in cords (surface and sections)” value ([7]; 24 h post-SCI) was “less hemorrhage”. For the same molecule, the “neurobehavioral function” value [7] was “improves neurological function; also recorded: improved”, the “progressive hemorrhagic necrosis / progressive hemorrhage” value [7] was “reduces progressive hemorrhagic necrosis; also recorded: blocked” and the “neurobehavioral function” value ([7]; listed as FFA) was “improve neurobehavioral function; also recorded: significantly better performance than controls”. For the same molecule, the “progressive hemorrhagic necrosis / progressive hemorrhage” value ([7]; listed as FFA) was “prevented”, the “capillary integrity (vimentin immunolabeling)” value ([7]; region of injury post-SCI, listed as FFA) was “elongated capillaries; also recorded: elongated and more intact” and the “inhibition of TRPM2” value [11] was “inhibits”. For the same molecule, the “protection of the retina” value [8] was “protected”.

For `CC1(C)Oc2ccc(C#N)cc2C(N2CCCC2=O)C1O` (stereo not shown) [cromakalin], the “channel opening in the presence of ATP” value [2] is given as “not”.

For `Nc1ncnc2c1ncn2[C@@H]1O[C@H](COP(=O)(O)OP(=O)(O)O)[C@@H](O)[C@H]1O` [ADP], the “ADP AMP channel effect” value [3, 15] is listed as “No channel”, the “ADP AMP channel effect” value ([3]; Reactive Astrocytes) is listed as “No channel” and the “ADP, AMP block” value ([2]; SUR1-regulated NCCa-ATP) is listed as “no”. For the same molecule, the “effect of ADP or AMP on channel opening” value [2] was “unaffected” and the “ADP, AMP block” value [5] was “yes”.

In the case of `COc1cc2c(cc1OC)C(C(C(=O)N(CCc1ccc(OC)c(OC)c1OC)CCc1ccc(OC)c(OC)c1OC)c1ccccc1)=NCC2` (racemic) [pinokalant, (R,S)-(3,4-dihydro-6,7-dimethoxy-isoquinoline-1-yl)-2-phenyl-N,N-di[2-(2,3,4-trimethoxyphenyl)ethyl]-acetamide], the blood flow [12, 16] is given as “significantly higher”, the “volume of ATP-depleted and morphologically injured tissue (infarct core), smaller” value [12, 16] is given as 60-70% and the “decrease of ADC lesion volume” value ([12]; during the initial 6 h of vascular occlusion) is given as “approximately 20%”. For the same molecule, the “size of ischemic penumbra” value ([12]; volume of severely acidic tissue) was “does not reduce”, the DWI-derived infarct volume ([13]; 4 h after MCAO) was “significantly smaller” and the neurological scores ([13]; 24 h) was “significantly better”. The TTC-derived infarct volume ([13]; postmortem) was “significantly attenuated” and the “size of the ischemic core” value ([13]; rat, in vivo) was “significantly smaller”.

In the case of `CC1=NS(=O)(=O)c2cc(Cl)ccc2N1` [diazoxide], the “channel opening in the presence of ATP” value [2] is given as “increased” and the bleb formation [14] is given as “reproduced”.
